Reference: the NIST ThermoML archive (doi:10.1016/j.jct.2013.01.008)

Assay: mn = molality of the nth substance listed, in mol/kg
Settings: 101 kPa, Liquid; for mass density: Pycnometric method; for viscosity: Capillary tube (Ostwald / Ubbelohde) method

C[C@@H](O)[C@H](N)C(=O)O [L-threonine] + O
Settings | mass density [kg/m3] | viscosity [mPa·s]
293.15 K, m1 = 0.025 | 999.31 | –
293.15 K, m1 = 0.05 | 1000.36 | –
293.15 K, m1 = 0.075 | 1001.39 | –
293.15 K, m1 = 0.0999 | 1002.41 | –
293.15 K, m1 = 0.1249 | 1003.41 | –
293.15 K, m1 = 0.15 | 1004.39 | –
293.15 K, m1 = 0.175 | 1005.36 | –
293.15 K, m1 = 0.2 | 1006.31 | –
298.15 K, m1 = 0.025 | 998.14 | 0.8981
298.15 K, m1 = 0.05 | 999.18 | 0.9057
298.15 K, m1 = 0.075 | 1000.22 | 0.9134
298.15 K, m1 = 0.0999 | 1001.23 | 0.9211
298.15 K, m1 = 0.1249 | 1002.23 | 0.9286
298.15 K, m1 = 0.15 | 1003.21 | 0.936
298.15 K, m1 = 0.175 | 1004.18 | 0.9434
298.15 K, m1 = 0.2 | 1005.12 | 0.9511
303.15 K, m1 = 0.025 | 996.75 | 0.8051
303.15 K, m1 = 0.05 | 997.8 | 0.8128
303.15 K, m1 = 0.075 | 998.83 | 0.8205
303.15 K, m1 = 0.0999 | 999.84 | 0.828
303.15 K, m1 = 0.1249 | 1000.83 | 0.8358
303.15 K, m1 = 0.15 | 1001.83 | 0.8434
303.15 K, m1 = 0.175 | 1002.79 | 0.851
303.15 K, m1 = 0.2 | 1003.74 | 0.8584
308.15 K, m1 = 0.025 | 995.14 | 0.7266
308.15 K, m1 = 0.05 | 996.19 | 0.7344
308.15 K, m1 = 0.075 | 997.23 | 0.7421
308.15 K, m1 = 0.0999 | 998.24 | 0.7496
308.15 K, m1 = 0.1249 | 999.24 | 0.7571
308.15 K, m1 = 0.15 | 1000.23 | 0.7645
308.15 K, m1 = 0.175 | 1001.2 | 0.7719
308.15 K, m1 = 0.2 | 1002.15 | 0.7792
313.15 K, m1 = 0.025 | 993.32 | 0.66
313.15 K, m1 = 0.05 | 994.38 | 0.6678
313.15 K, m1 = 0.075 | 995.42 | 0.6754
313.15 K, m1 = 0.0999 | 996.44 | 0.6828
313.15 K, m1 = 0.1249 | 997.44 | 0.6901
313.15 K, m1 = 0.15 | 998.43 | 0.6974
313.15 K, m1 = 0.175 | 999.4 | 0.7047
313.15 K, m1 = 0.2 | 1000.35 | 0.7119
318.15 K, m1 = 0.025 | 991.32 | 0.6044
318.15 K, m1 = 0.05 | 992.38 | 0.6121
318.15 K, m1 = 0.075 | 993.42 | 0.6196
318.15 K, m1 = 0.0999 | 994.45 | 0.6269
318.15 K, m1 = 0.1249 | 995.46 | 0.6341
318.15 K, m1 = 0.15 | 996.45 | 0.6413
318.15 K, m1 = 0.175 | 997.43 | 0.6485
318.15 K, m1 = 0.2 | 998.39 | 0.6556
